Experimental data from patent US20140348819A1, “Methods of Treating Cancer” (Dana-Farber Cancer Institute, Inc., priority 2011, published 2014).

Test system: six V600E BRAF melanoma cell lines
Assay: Screening of recombinant RTK ligands for ability to confer resistance to BRAFi (PLX4720) or MEKi (PD184352) (Table 4)
Assay type: cell-based, human
Design: ability of recombinant RTK ligand to confer resistance / ability of recombinant RTK ligand to confer resistance (screening value): scale not given here
Protocol: HGF is the only one that can substantially confer drug resistance to the cell lines.
The complexity of the tumor microenvironment is much greater than an in vitro co-culture system. Therefore, the inventors explored whether the activation of other RTKs could result in a similar resistance as that observed with the activation of MET. To this end, six V600E BRAF melanoma cell lines were tested for their resistance to either BRAFi (PLX4720) or MEKi (PD184352) after the addition of 22 RTK ligands that have the potential of activating almost all known RTKs. […] The activation of a selected subset of these RTKs was confirmed by western blotting and by high throughput tyrosine kinase phosphorylation profiling.

[1] = A2058, PD184352 - 1 uM, ligand 0.4 ng/ml
[2] = A2058, PD184352 - 1 uM, ligand 1.6 ng/ml
[3] = A2058, PD184352 - 1 uM, ligand 6.25 ng/ml
[4] = A2058, PD184352 - 1 uM, ligand 25 ng/ml
[5] = A2058, PD184352 - 1 uM, ligand 100 ng/ml
[6] = A2058, PLX4720 - 2 uM, ligand 0.4 ng/ml
[7] = A2058, PLX4720 - 2 uM, ligand 1.6 ng/ml
[8] = A2058, PLX4720 - 2 uM, ligand 6.25 ng/ml
[9] = A2058, PLX4720 - 2 uM, ligand 25 ng/ml
[10] = A2058, PLX4720 - 2 uM, ligand 100 ng/ml
[11] = C32, PD184352 - 1 uM, ligand 0.4 ng/ml
[12] = C32, PD184352 - 1 uM, ligand 1.6 ng/ml
[13] = C32, PD184352 - 1 uM, ligand 6.25 ng/ml
[14] = C32, PD184352 - 1 uM, ligand 25 ng/ml
[15] = C32, PD184352 - 1 uM, ligand 100 ng/ml
[16] = C32, PLX4720 - 2 uM, ligand 0.4 ng/ml
[17] = C32, PLX4720 - 2 uM, ligand 1.6 ng/ml
[18] = C32, PLX4720 - 2 uM, ligand 6.25 ng/ml
[19] = C32, PLX4720 - 2 uM, ligand 25 ng/ml
[20] = C32, PLX4720 - 2 uM, ligand 100 ng/ml
[21] = Colo 829, PD184352 - 1 uM, ligand 0.4 ng/ml
[22] = Colo 829, PD184352 - 1 uM, ligand 1.6 ng/ml
[23] = Colo 829, PD184352 - 1 uM, ligand 6.25 ng/ml
[24] = Colo 829, PD184352 - 1 uM, ligand 25 ng/ml
[25] = Colo 829, PD184352 - 1 uM, ligand 100 ng/ml
[26] = Colo 829, PLX4720 - 2 uM, ligand 0.4 ng/ml
[27] = Colo 829, PLX4720 - 2 uM, ligand 1.6 ng/ml
[28] = Colo 829, PLX4720 - 2 uM, ligand 6.25 ng/ml
[29] = Colo 829, PLX4720 - 2 uM, ligand 25 ng/ml
[30] = Colo 829, PLX4720 - 2 uM, ligand 100 ng/ml
[31] = G-361, PD184352 - 1 uM, ligand 0.4 ng/ml
[32] = G-361, PD184352 - 1 uM, ligand 1.6 ng/ml
[33] = G-361, PD184352 - 1 uM, ligand 6.25 ng/ml
[34] = G-361, PD184352 - 1 uM, ligand 25 ng/ml
[35] = G-361, PD184352 - 1 uM, ligand 100 ng/ml
[36] = G-361, PLX4720 - 2 uM, ligand 0.4 ng/ml
[37] = G-361, PLX4720 - 2 uM, ligand 1.6 ng/ml
[38] = G-361, PLX4720 - 2 uM, ligand 6.25 ng/ml
[39] = G-361, PLX4720 - 2 uM, ligand 25 ng/ml
[40] = G-361, PLX4720 - 2 uM, ligand 100 ng/ml
[41] = SK-MEL-5, PD184352 - 1 uM, ligand 0.4 ng/ml
[42] = SK-MEL-5, PD184352 - 1 uM, ligand 1.6 ng/ml
[43] = SK-MEL-5, PD184352 - 1 uM, ligand 6.25 ng/ml
[44] = SK-MEL-5, PD184352 - 1 uM, ligand 25 ng/ml
[45] = SK-MEL-5, PD184352 - 1 uM, ligand 100 ng/ml
[46] = SK-MEL-5, PLX4720 - 2 uM, ligand 0.4 ng/ml
[47] = SK-MEL-5, PLX4720 - 2 uM, ligand 1.6 ng/ml
[48] = SK-MEL-5, PLX4720 - 2 uM, ligand 6.25 ng/ml
[49] = SK-MEL-5, PLX4720 - 2 uM, ligand 25 ng/ml
[50] = SK-MEL-5, PLX4720 - 2 uM, ligand 100 ng/ml
[51] = SK-MEL-28, PD184352 - 1 uM, ligand 0.4 ng/ml
[52] = SK-MEL-28, PD184352 - 1 uM, ligand 1.6 ng/ml
[53] = SK-MEL-28, PD184352 - 1 uM, ligand 6.25 ng/ml
[54] = SK-MEL-28, PD184352 - 1 uM, ligand 25 ng/ml
[55] = SK-MEL-28, PD184352 - 1 uM, ligand 100 ng/ml
[56] = SK-MEL-28, PLX4720 - 2 uM, ligand 0.4 ng/ml
[57] = SK-MEL-28, PLX4720 - 2 uM, ligand 1.6 ng/ml
[58] = SK-MEL-28, PLX4720 - 2 uM, ligand 6.25 ng/ml
[59] = SK-MEL-28, PLX4720 - 2 uM, ligand 25 ng/ml
[60] = SK-MEL-28, PLX4720 - 2 uM, ligand 100 ng/ml

NGF
ability of recombinant RTK ligand to confer resistance [1]: 0.98 | ability of recombinant RTK ligand to confer resistance [2]: 0.95 | ability of recombinant RTK ligand to confer resistance [3]: 1.09 | ability of recombinant RTK ligand to confer resistance [4]: 0.99 | ability of recombinant RTK ligand to confer resistance [5]: 0.99 | ability of recombinant RTK ligand to confer resistance [6]: 1.04 | ability of recombinant RTK ligand to confer resistance [7]: 1.02 | ability of recombinant RTK ligand to confer resistance [8]: 1.06 | ability of recombinant RTK ligand to confer resistance [9]: 1.07 | ability of recombinant RTK ligand to confer resistance [10]: 0.98 | ability of recombinant RTK ligand to confer resistance [11]: 1.00 | ability of recombinant RTK ligand to confer resistance [12]: 1.07 | ability of recombinant RTK ligand to confer resistance [13]: 1.07 | ability of recombinant RTK ligand to confer resistance [14]: 0.98 | ability of recombinant RTK ligand to confer resistance [15]: 1.03 | ability of recombinant RTK ligand to confer resistance [16]: 0.98 | ability of recombinant RTK ligand to confer resistance [17]: 0.98 | ability of recombinant RTK ligand to confer resistance [18]: 1.03 | ability of recombinant RTK ligand to confer resistance [19]: 0.97 | ability of recombinant RTK ligand to confer resistance [20]: 0.87 | ability of recombinant RTK ligand to confer resistance [21]: 1.04 | ability of recombinant RTK ligand to confer resistance [22]: 1.03 | ability of recombinant RTK ligand to confer resistance [23]: 1.04 | ability of recombinant RTK ligand to confer resistance [24]: 0.94 | ability of recombinant RTK ligand to confer resistance [25]: 1.02 | ability of recombinant RTK ligand to confer resistance [26]: 0.96 | ability of recombinant RTK ligand to confer resistance [27]: 0.96 | ability of recombinant RTK ligand to confer resistance [28]: 1.02 | ability of recombinant RTK ligand to confer resistance [29]: 0.96 | ability of recombinant RTK ligand to confer resistance [30]: 1.03 | ability of recombinant RTK ligand to confer resistance [31]: 1.09 | ability of recombinant RTK ligand to confer resistance [32]: 0.78 | ability of recombinant RTK ligand to confer resistance [33]: 0.97 | ability of recombinant RTK ligand to confer resistance [34]: 0.85 | ability of recombinant RTK ligand to confer resistance [35]: 0.94 | ability of recombinant RTK ligand to confer resistance [36]: 1.10 | ability of recombinant RTK ligand to confer resistance [37]: 0.87 | ability of recombinant RTK ligand to confer resistance [38]: 0.91 | ability of recombinant RTK ligand to confer resistance [39]: 0.92 | ability of recombinant RTK ligand to confer resistance [40]: 0.94 | ability of recombinant RTK ligand to confer resistance [41]: 1.03 | ability of recombinant RTK ligand to confer resistance [42]: 1.04 | ability of recombinant RTK ligand to confer resistance [43]: 0.96 | ability of recombinant RTK ligand to confer resistance [44]: 1.07 | ability of recombinant RTK ligand to confer resistance [45]: 1.09 | ability of recombinant RTK ligand to confer resistance [46]: 1.00 | ability of recombinant RTK ligand to confer resistance [47]: 1.03 | ability of recombinant RTK ligand to confer resistance [48]: 0.85 | ability of recombinant RTK ligand to confer resistance [49]: 0.93 | ability of recombinant RTK ligand to confer resistance [50]: 0.92 | ability of recombinant RTK ligand to confer resistance [51]: 0.91 | ability of recombinant RTK ligand to confer resistance [52]: 0.92 | ability of recombinant RTK ligand to confer resistance [53]: 0.99 | ability of recombinant RTK ligand to confer resistance [54]: 0.96 | ability of recombinant RTK ligand to confer resistance [55]: 1.08 | ability of recombinant RTK ligand to confer resistance [56]: 0.89 | ability of recombinant RTK ligand to confer resistance [57]: 0.97 | ability of recombinant RTK ligand to confer resistance [58]: 1.05 | ability of recombinant RTK ligand to confer resistance [59]: 1.00 | ability of recombinant RTK ligand to confer resistance [60]: 1.12

NT3
ability of recombinant RTK ligand to confer resistance [1]: 1.04 | ability of recombinant RTK ligand to confer resistance [2]: 1.13 | ability of recombinant RTK ligand to confer resistance [3]: 1.08 | ability of recombinant RTK ligand to confer resistance [4]: 1.01 | ability of recombinant RTK ligand to confer resistance [5]: 0.90 | ability of recombinant RTK ligand to confer resistance [6]: 1.02 | ability of recombinant RTK ligand to confer resistance [7]: 1.16 | ability of recombinant RTK ligand to confer resistance [8]: 1.09 | ability of recombinant RTK ligand to confer resistance [9]: 1.02 | ability of recombinant RTK ligand to confer resistance [10]: 0.93 | ability of recombinant RTK ligand to confer resistance [11]: 0.98 | ability of recombinant RTK ligand to confer resistance [12]: 1.02 | ability of recombinant RTK ligand to confer resistance [13]: 0.93 | ability of recombinant RTK ligand to confer resistance [14]: 0.95 | ability of recombinant RTK ligand to confer resistance [15]: 0.88 | ability of recombinant RTK ligand to confer resistance [16]: 1.00 | ability of recombinant RTK ligand to confer resistance [17]: 1.03 | ability of recombinant RTK ligand to confer resistance [18]: 0.91 | ability of recombinant RTK ligand to confer resistance [19]: 1.00 | ability of recombinant RTK ligand to confer resistance [20]: 0.95 | ability of recombinant RTK ligand to confer resistance [21]: 1.07 | ability of recombinant RTK ligand to confer resistance [22]: 1.16 | ability of recombinant RTK ligand to confer resistance [23]: 1.02 | ability of recombinant RTK ligand to confer resistance [24]: 1.07 | ability of recombinant RTK ligand to confer resistance [25]: 1.03 | ability of recombinant RTK ligand to confer resistance [26]: 1.03 | ability of recombinant RTK ligand to confer resistance [27]: 1.15 | ability of recombinant RTK ligand to confer resistance [28]: 1.00 | ability of recombinant RTK ligand to confer resistance [29]: 1.09 | ability of recombinant RTK ligand to confer resistance [30]: 1.04 | ability of recombinant RTK ligand to confer resistance [31]: 0.98 | ability of recombinant RTK ligand to confer resistance [32]: 0.98 | ability of recombinant RTK ligand to confer resistance [33]: 1.01 | ability of recombinant RTK ligand to confer resistance [34]: 1.05 | ability of recombinant RTK ligand to confer resistance [35]: 0.88 | ability of recombinant RTK ligand to confer resistance [36]: 0.95 | ability of recombinant RTK ligand to confer resistance [37]: 0.98 | ability of recombinant RTK ligand to confer resistance [38]: 1.00 | ability of recombinant RTK ligand to confer resistance [39]: 0.98 | ability of recombinant RTK ligand to confer resistance [40]: 0.84 | ability of recombinant RTK ligand to confer resistance [41]: 1.02 | ability of recombinant RTK ligand to confer resistance [42]: 1.08 | ability of recombinant RTK ligand to confer resistance [43]: 1.00 | ability of recombinant RTK ligand to confer resistance [44]: 0.94 | ability of recombinant RTK ligand to confer resistance [45]: 1.04 | ability of recombinant RTK ligand to confer resistance [46]: 0.99 | ability of recombinant RTK ligand to confer resistance [47]: 1.02 | ability of recombinant RTK ligand to confer resistance [48]: 0.93 | ability of recombinant RTK ligand to confer resistance [49]: 0.98 | ability of recombinant RTK ligand to confer resistance [50]: 1.09 | ability of recombinant RTK ligand to confer resistance [51]: 1.02 | ability of recombinant RTK ligand to confer resistance [52]: 0.97 | ability of recombinant RTK ligand to confer resistance [53]: 0.99 | ability of recombinant RTK ligand to confer resistance [54]: 1.15 | ability of recombinant RTK ligand to confer resistance [55]: 0.96 | ability of recombinant RTK ligand to confer resistance [56]: 0.95 | ability of recombinant RTK ligand to confer resistance [57]: 1.05 | ability of recombinant RTK ligand to confer resistance [58]: 0.89 | ability of recombinant RTK ligand to confer resistance [59]: 1.14 | ability of recombinant RTK ligand to confer resistance [60]: 0.94
